Legend:
CCRF-CEM cells [1] = assay: annexin V/propidium iodide apoptosis, flow cytometry, CCRF-CEM; type: cell-based, human; conditions: 48 h, annexin V binding
Experimental: The results obtained for CCRF-CEM and MCF-7 are shown in Figure 3 and Figure 4, respectively. […] 1, 79.6% of cells were apoptotic.
CCRF-CEM cells were seeded in 24-well plates at a density of 2 × 10^5 cells/mL. The cells were treated with the tested compounds at concentrations of 8, 16, and 32 µM, followed by incubation for 48 h. After treatment, the cells were harvested and processed according to the previously described protocol. Flow cytometric measurements were conducted within 1 h of cell labeling. Viable, necrotic, early apoptotic, and late apoptotic cells were identified using a BD Accuri C6 Plus flow cytometer and analyzed with BD Accuri C6 Plus software, version 1.0.34.1 (BD Biosciences, San Jose, CA, USA).

[2] = test system: PIM-1 kinase in MCF-7 cells (Ser112 in BAD); assay: Western blot of phosphorylated BAD (Ser112), marker of PIM kinase activity, MCF-7; type: cell-based, human; conditions: 16 µM, 24 h, untreated cells = 1
Experimental: (§1) After 24 h of treatment, we assessed site-specific phosphorylation of Ser529 in NF-κB p65 and Ser112 in BAD—a marker of PIM kinase activity—using Western blot analysis (Figure 8). The data for BAD confirmed intracellular inhibition of this kinase by the tested compounds in both cell lines in a dose-dependent manner. A statistically significant decrease in phosphorylated BAD was observed following treatment with 16 µM of compound 1, with relative protein levels reduced to 0.48 and 0.46 in CCRF-CEM and MCF-7 cells, respectively (Figure 8a–c).
(§2) Exponentially growing CCRF-CEM or MCF-7 cells were seeded at a density of 6 × 10^5 cells per 6 cm dish. Compounds were then added, with a final DMSO concentration of 0.5%. Cell lysates were prepared as previously described. The ECL substrate was used for signal detection, and the immunoblots were scanned using a G:BOX Chemi imaging system (Syngene, Cambridge, UK) equipped with GeneSys software, Version 1.4.3.0 (Syngene, Cambridge, UK).
(§3) For densitometric analysis, immunoblots were scanned using the G:BOX Chemi system (Syngene), and the band intensities of phosphorylated and total proteins were quantified with GeneSys software (Syngene, Cambridge, UK). The levels of phosphorylated proteins were normalized to GAPDH, with the value for untreated cells set to 1, and subsequently expressed as a percentage relative to the appropriate control.

[3] = test system: CK2 in CCRF-CEM cells (Ser529 in NF-κB p65); assay: Western blot of phosphorylated p65 (Ser529), intracellular CK2 inhibition, CCRF-CEM; type: cell-based, human; conditions: 16 µM, 24 h, untreated cells = 1
Experimental: as §1, §2, §3

[4] = test system: MDA-MB-231 (breast carcinoma); assay: MTT-based viability assay, MDA-MB-231; type: cell-based, human
Experimental: (§4) 3. The cytotoxicity of the newly obtained inhibitors, i.e., 1, 2, and 4 was tested towards four cell lines, i.e., CCRF-CEM (acute lymphoblastic leukemia ALL), MCF-7 (breast carcinoma), MDA-MB-231 (triple negative breast carcinoma), and Vero (Cercopithecus aethiops kidney).
(§5) The CCRF-CEM (acute lymphoblastic leukemia, ALL) and MDA-MB-231 (triple-negative breast adenocarcinoma) cell lines were obtained from the European Collection of Authenticated Cell Cultures (ECACC), while the MCF-7 (hormone-dependent breast adenocarcinoma) and Vero (Cercopithecus aethiops kidney) cell lines were purchased from the American Type Culture Collection (ATCC, Manassas, VA, USA). CCRF-CEM cells were maintained in RPMI-1640 medium, whereas MCF-7 and MDA-MB-231 cells were cultured in DMEM (Sigma-Aldrich Chemical Company, St. Louis, MO, USA). Vero cells were cultured in minimum essential medium eagle (MEM; Sigma-Aldrich). All media were supplemented with 10% fetal bovine serum (FBS), 2 mM L-glutamine, and antibiotics (100 U/mL penicillin and 100 µg/mL streptomycin) (Sigma-Aldrich). Cells were grown in 75-cm^2 culture flasks (Googlab Scientific, Rakocin, Poland) in a humidified atmosphere containing 5% CO2 at 37 °C. All experiments were performed using exponentially growing cultures. Stock solutions of the test compounds were prepared in DMSO and stored at –80 °C for up to one month.
(§6) Following incubation with the tested compounds, the MTT assay was carried out as previously described. Optical density was measured at 570 nm using a BioTek microplate reader (Winooski, VT, USA). All measurements were performed in at least three independent biological replicates.

[5] = test system: CCRF-CEM (acute lymphoblastic leukemia); assay: MTT-based viability assay, CCRF-CEM; type: cell-based, human
Experimental: as §4, §5, §6

CCRF-CEM cells [6] = assay: cell cycle progression by flow cytometry, CCRF-CEM; type: cell-based, human; conditions: 16 µM, 48 h
Experimental: Since CK2 and PIM kinases regulate cell cycle progression, their inhibition may alter the distribution of cells across different cell cycle phases. […] For control cells, the percentage of G2/M cells was 17%. In addition to those changes, we observed cells in the sub-G1 phase, which are apoptotic cells. Accumulation of cells in this phase reflects DNA degradation characteristic of apoptotic cells. The largest percentage of these cells, i.e., 32% was determined in 16 µM 1-treated cells (Figure 6a,b).
CCRF-CEM and MCF-7 cells were cultured in 6-well plates and treated with the tested compounds for 48 h. After exposure to the compounds, the cells were collected, washed with cold PBS, and fixed in 70% ethanol at –20 °C for at least 24 h. Subsequently, the cells were washed in PBS and stained according to the procedure previously described by our group. The cellular DNA content was measured by flow cytometry using a BD Accuri C6 Plus flow cytometer (BD Biosciences, San Jose, CA, USA). The resulting DNA histograms were analyzed with BD Accuri C6 Plus software (San Diego, CA, USA) to assess the distribution of cells across different phases of the cell cycle.

[7] = test system: caspase-3 in CCRF-CEM cells; assay: caspase-3 activation, flow cytometry, CCRF-CEM; type: cell-based, human; conditions: 16 µM, 24 h
Experimental: Since caspase-3 is a key protease activated in the early stages of apoptosis, we next investigated whether apoptosis in CCRF-CEM cells is mediated through caspase-3 activation. Both cpd. […] 1. The results are consistent with the previously observed pro-apoptotic properties of derivative 1.
Caspase-3 activity was measured using the FITC Active Caspase-3 Apoptosis Kit (BD Pharmingen, San Jose, CA, USA) according to the manufacturer’s instructions. The stained cells were measured with a BD Accuri C6 Plus flow cytometer.

[8] = test system: Vero (Cercopithecus aethiops kidney); assay: MTT-based viability assay, Vero; type: cell-based; conditions: Chlorocebus sabaeus, MTT, 48 h, non-cancerous cells, read-out: IC50 [µM] Vero
Experimental: as §4, §5, §6

[9] = IC50 for Vero/IC50 for cancer cells

CC(=O)Cn1cnc2c(Br)c(Br)c(Br)c(Br)c21 [compound 1, 1-(4,5,6,7-tetrabromo-1H-benzimidazol-1-yl)propan-2-one]
apoptotic CCRF-CEM cells (CCRF-CEM cells [1]; 8 µM): 23.5% | apoptotic CCRF-CEM cells (CCRF-CEM cells [1]; 16 µM): 79.6% | apoptotic CCRF-CEM cells (CCRF-CEM cells [1]; 32 µM): ~98% | relative level of phosphorylated BAD (Ser112), MCF-7 [2]: 0.46 | relative level of phosphorylated p65 (Ser529), CCRF-CEM [3]: 0.46 | IC50 ([4]; Homo sapiens, MDA-MB-231, MTT, 48 h, read-out: IC50 [µM] MDA-MB-231): 21.2 ± 0.76 µM | SI (selectivity index) MDA-MB-231 [4, 9]: 0.95 | IC50 ([5]; Homo sapiens, CCRF-CEM, MTT, 48 h, read-out: IC50 [µM] CCRF-CEM): 12.4 ± 0.82 µM | SI (selectivity index) CCRF-CEM [5, 9]: 1.62 | CCRF-CEM cells in the sub-G1 phase (CCRF-CEM cells [6]): 32% | CCRF-CEM cells in the G2/M phase (CCRF-CEM cells [6]; control 17%): 10% | CCRF-CEM cells in the S phase (CCRF-CEM cells [6]; control 33%): 20% | CCRF-CEM cells with the active caspase-3 [7]: 60% | IC50 [8]: 20.2 ± 3.59 µM
